Holding throughout (assay type): functional
Assay [1] concerns Cancer cell lines. Description: concentration to inhibit 50%cancer cell growth and the value is the mean value which was obtained from 60 cancer cell line assay.
For assay [2], the system named is Cancer cell lines. Description: The concentration to cause 50% cancer cell lethality and the value is the mean value which was obtained from 60 cancer cell line assay.
The test system of assay [3] is Cancer cell lines. Description: concentration to inhibit 100%cancer cell growth and the value is the mean value which was obtained from 60 cancer cell line assay. As to conditions: read-out: Log TGI (converted).

The values that follow come from ChEMBL document CHEMBL1129455, “Chemistry of the pyrrolo[1,2-alpha]benzimidazole antitumor agents: influence of the 7-substituent on the ability to alkylate DNA and inhibit topoisomerase II” (1996).

As a reminder, the GI50 is the concentration at which growth is held to half of that of the control. Low readings indicate more potent growth inhibition, high ones less potent growth inhibition. The term LC50 denotes the concentration lethal to half of the exposed cells or organisms. Low readings indicate greater toxicity, high ones lower toxicity. What is called TGI is the concentration giving total growth inhibition.

A value given as a limit tells only on which side of the number the result lay.

On to `CC(=O)OC1CCn2c1nc1c2C(=O)C(C)=C(N2CC2)C1=O` (configuration not stated), for which the GI50 with Cancer cell lines [1] was 12 nM. In the assay on Cancer cell lines [2], this compound showed an LC50 of 0.245 µM. In the assay on Cancer cell lines [3], the TGI is 31.6 nM.
Consider `O=C1C=C(N2CC2)C(=O)c2c1nc1n2CCC1`, for which the GI50 in the assay on Cancer cell lines [1] is more than 100000 nM. Besides, in the assay with Cancer cell lines [2], the LC50 is more than 100 µM. Besides, in the assay with Cancer cell lines [3], the TGI is more than 100000 nM.
On to `COC1=C(NC(C)=O)C(=O)c2nc3n(c2C1=O)CCC3OC(C)=O` (configuration not stated), for which, in the assay on Cancer cell lines [1], growth was halved (GI50) at 18600 nM. For the same compound, the LC50 in the assay with Cancer cell lines [2] was 74.1 µM. The TGI in the assay on Cancer cell lines [3] is 38900 nM.
Taken in the same sequence, the figures for `CC(=O)NC1=C(C)C(=O)c2c(nc3n2CCC3)C1=O` were 1450 nM, 10.7 µM and 3720 nM.
Taken in the same sequence, the figures for `CC(=O)NC1=C(C)C(=O)c2c(nc3n2CCC3OC(C)=O)C1=O` (configuration not stated) were 1580 nM, 18.6 µM and 4790 nM.
In the assay with Cancer cell lines [1], `COC1=C(N2CC2)C(=O)c2nc3n(c2C1=O)CCC3` showed a GI50 of 708 nM. In addition, in the assay with Cancer cell lines [2], the LC50 was 13.5 µM. For the same compound, in the assay with Cancer cell lines [3], the TGI was 2510 nM.
The like results for `CC(=O)OC1CCn2c1nc1c2C(=O)C=C(N2CC2)C1=O` (configuration not stated) were, in that order, 269 nM, 5.25 µM and 1070 nM.
Taken in the same sequence, the figures for `O=C1C(N2CC2)=CC(=O)c2c1nc1n2CCC1` were 363 nM, 5.5 µM and 1350 nM.
Consider `CC1=C(N2CC2)C(=O)c2nc3n(c2C1=O)CCC3`, for which the GI50 in the assay on Cancer cell lines [1] was 18.2 nM. The LC50 with Cancer cell lines [2] is 2.04 µM. The TGI with Cancer cell lines [3] was 105 nM.
